According to US11149022B2, “Antagonists of the muscarinic acetylcholine receptor M4” (Vanderbilt University, priority 2017, dated 2021):

Biological target: T1, Human M4 (Homo sapiens, UniProt P08173)
T1 construct: expressed in transfected cells; host or cells: CHO-K1 (ATCC), stably co-expressing chimeric G protein Gqi5
T1 sequence (P08173 1-479): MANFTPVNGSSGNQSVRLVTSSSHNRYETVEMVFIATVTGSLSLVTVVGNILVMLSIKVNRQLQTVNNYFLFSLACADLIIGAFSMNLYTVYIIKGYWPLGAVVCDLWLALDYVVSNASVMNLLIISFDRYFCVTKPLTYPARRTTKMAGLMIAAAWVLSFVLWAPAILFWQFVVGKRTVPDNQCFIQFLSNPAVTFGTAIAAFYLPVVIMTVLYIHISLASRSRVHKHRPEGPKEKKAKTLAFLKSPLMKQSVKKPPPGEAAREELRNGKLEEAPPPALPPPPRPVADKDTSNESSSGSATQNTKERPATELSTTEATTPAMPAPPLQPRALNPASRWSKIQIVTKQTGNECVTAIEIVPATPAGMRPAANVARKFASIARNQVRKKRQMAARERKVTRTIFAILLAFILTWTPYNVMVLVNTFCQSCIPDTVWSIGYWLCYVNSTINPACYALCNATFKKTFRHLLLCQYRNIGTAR
Experiment: mAChR M4 cell-based functional assay (calcium flux, antagonist mode)
Settings: for remaining activity at 30 µM: % ACh maximum at 30 μM, read-out: Emin; for IC50: M4/Gqi5/CHO-K1 cells, concentration-dependent decrease of the EC80 acetylcholine response
Protocol: Human or rat M4 cDNA, along with the chimeric G protein Gqi5, were transfected into Chinese hamster ovary (CHO-K1) cells purchased from the American Type Culture Collection using Lipofectamine2000. M4/Gqi5/CHO cells were grown in Ham's F-12 medium containing 10% heat-inactivated fetal bovine serum (FBS), 20 mM HEPES, 500 μg/mL G418 sulfate, and 200 μg/mL Hygromycin B.
For high throughput measurement of agonist-evoked increases in intracellular calcium, CHO-K1 cells stably expressing muscarinic receptors were plated in growth medium lacking G418 and hygromycin at 15,000 cells/20 μL/well in Greiner 384-well black-walled, tissue culture (TC)-treated, clear-bottom plates (VWR). Cells were incubated overnight at 37° C. and 5% CO2. The next day, cells were washed using an ELX 405 (BioTek) with assay buffer; the final volume was then aspirated to 20 μL, Next, 20 μL of a 2.3 μM stock of Fluo-4/acetoxymethyl ester (Invitrogen, Carlsbad, Calif.), prepared as a 2.3 μM stock in DMSO, mixed in a 1:1 ratio with 10% (w/v) Pluronic F-127 and diluted in assay buffer, was added to the wells and the cell plates were incubated for 50 min at 37° C. and 5% CO2. Dye was removed by washing with the ELX 405 and the final volume was aspirated to […]. Compound master plates were formatted in a 10 point concentration-response curve (CRC) format (1:3 dilutions) in 100% DMSO with a starting concentration of 10 or 1 mM using a BRAVO liquid handler (Agilent). Test compound CRCs were then transferred to daughter plates (240 nL) using the Echo acoustic plate reformatter (Labcyte, Sunnyvale, Calif.) and then diluted into assay buffer (40 μL) to a 2× stock using a Thermo Fisher Combi (Thermo Fisher Scientific, Waltham, Mass.).
Calcium flux was measured using the Functional Drug Screening System (FDSS) 6000 or 7000 (Hamamatsu Corporation, Tokyo, Japan) as an increase in the fluorescent static ratio. Compounds were applied to cells (20 μL, 2×) using the automated system of the FDSS at 2 seconds into the protocol and the data were collected at 1 Hz. At 143 s, 10 μL of an EC20 concentration of the muscarinic receptor agonist acetylcholine was added (5×), followed by the addition of 12 μL of an EC80 concentration of acetylcholine at the 268 s time point (5×). Agonist activity was analyzed as a concentration-dependent increase in calcium mobilization upon compound addition. Positive allosteric modulator activity was analyzed as a concentration-dependent increase in the EC20 acetylcholine response. Antagonist activity was analyzed as a concentration-dependent decrease in the EC80 acetylcholine response; for the purposes of the tables herein, an […] (inhibitory concentration 50) was calculated as a concentration-dependent decrease of the response elicited by an EC80 concentration of acetylcholine. Concentration-response curves were generated using a four-parameter logistical equation in XLFit curve fitting software (IDBS, Bridgewater, N.J.) for Excel (Microsoft, Redmond, Wash.) or Prism (GraphPad Software, Inc., San Diego, Calif.) or the Dotmatics software platform (Dotmatics, Bishop's Stortford, UK).
Compounds were synthesized as described above. Activity (IC50 and Emin) was determined in the mAChR M4 cell-based functional assay as described above and the data are shown in Table 4.

Structure (SMILES) | remaining activity at 30 µM [%] | IC50 [µM]
Cc1cnn(C)c1-c1ccc(OC2CC3(CCN(CCC(C)(C)C)CC3)C2)nn1 [Compound 14, 7-(3,3-Dimethylbutyl)-2-[6-(2,4-dimethylpyrazol-3-yl)pyridazin-3-yl]oxy-7-azaspiro[3.5]nonane] | 3.92 | 0.24
Cc1nn(C)cc1-c1ccc(NCC2CC3(CCN(CC4CCCOC4)CC3)C2)nn1 (centres unmarked) [Compound 51, 6-(1,3-dimethylpyrazol-4-yl)-N-[[7-(tetrahydropyran-3-ylmethyl)-7-azaspiro[3.5]nonan-2-yl]methyl]pyridazin-3-amine] | 37.6 | > 10
Cc1cccnc1CN1CCC2(CC1)CC(Oc1ccc(-c3cn(C)nc3C)nn1)C2 [Compound 31, 2-[6-(1,3-dimethylpyrazol-4-yl)pyridazin-3-yl]oxy-7-[(3-methyl-2-pyridyl)methyl]-7-azaspiro[3.5]nonane] | 8.05 | 2.67
Cc1cccnc1CN1CCC2(CC1)CC(CNc1ccc(-c3cn(C)nc3C)nn1)C2 [Compound 56, 6-(1,3-dimethylpyrazol-4-yl)-N-[[7-[(3-methyl-2-pyridyl)methyl]-7-azaspiro[3.5]nonan-2-yl]methyl]pyridazin-3-amine] | 19.4 | 3.94
Cc1nn(C)cc1-c1ccc(NCC2CC3(CCN(CC4CC5C=CC4C5)CC3)C2)nn1 (centres unmarked) [Compound 59, N-[[7-(5-bicyclo[2.2.1]hept-2-enylmethyl)-7-azaspiro[3.5]nonan-2-yl]methyl]-6-(1,3-dimethylpyrazol-4-yl)pyridazin-3-amine] | 5.41 | 0.18
Fc1ccc(Cl)c(-c2ccc(NCC3CC4(CCN(Cc5ccccn5)CC4)C3)nn2)c1 [Compound 47, 6-(2-chloro-5-fluoro-phenyl)-N-[[7-(2-pyridylmethyl)-7-azaspiro[3.5]nonan-2-yl]methyl]pyridazin-3-amine] | 5.52 | 1.91
Fc1ccc(Cl)c(-c2ccc(OC3CC4(CCN(CC5CCCOC5)CC4)C3)nn2)c1 (centres unmarked) [Compound 20, 2-[6-(2-chloro-5-fluoro-phenyl)pyridazin-3-yl]oxy-7-(tetrahydropyran-3-ylmethyl)-7-azaspiro[3.5]nonane] | 5.55 | 1.77
COc1cccc(CN2CCC3(CC2)CC(CNc2ccc(-c4cc(F)ccc4Cl)nn2)C3)n1 [Compound 48, 6-(2-chloro-5-fluoro-phenyl)-N-[[7-[(6-methoxy-2-pyridyl)methyl]-7-azaspiro[3.5]nonan-2-yl]methyl]pyridazin-3-amine] | 4.48 | 1.74
Fc1ccc(Cl)c(-c2ccc(NCC3CC4(CCN(CC5CCCCC5)CC4)C3)nn2)c1 [Compound 42, 6-(2-chloro-5-fluoro-phenyl)-N-[[7-(cyclohexylmethyl)-7-azaspiro[3.5]nonan-2-yl]methyl]pyridazin-3-amine] | 6.27 | 3.14
Cc1cnn(C)c1-c1ccc(NC2CC3(CCN(CC(C)C(C)(C)C)CC3)C2)nn1 (centres unmarked) [Compound 9, N-[6-(2,4-dimethylpyrazol-3-yl)pyridazin-3-yl]-7-(2,3,3-trimethylbutyl)-7-azaspiro[3.5]nonan-2-amine] | 3.11 | 0.22
Cc1cccnc1CN1CCC2(CC1)CC(Oc1ccc(-c3c(C)cnn3C)nn1)C2 [Compound 38, 2-[6-(2,4-dimethylpyrazol-3-yl)pyridazin-3-yl]oxy-7-[(3-methyl-2-pyridyl)methyl]-7-azaspiro[3.5]nonane] | 14.8 | 7.72
Fc1ccc(Cl)c(-c2ccc(OCC3CC4(CCN(CC5CCOCC5)CC4)C3)nn2)c1 [Compound 64, 2-[[6-(2-chloro-5-fluoro-phenyl)pyridazin-3-yl]oxymethyl]-7-(tetrahydropyran-4-ylmethyl)-7-azaspiro[3.5]nonane] | 6.61 | 1.31
Cc1cnn(C)c1-c1ccc(OC2CC3(CCN(CC4CCSCC4)CC3)C2)nn1 [Compound 36, 2-[6-(2,4-dimethylpyrazol-3-yl)pyridazin-3-yl]oxy-7-(tetrahydrothiopyran-4-ylmethyl)-7-azaspiro[3.5]nonane] | 4.76 | 1.21
Cc1nn(C)cc1-c1ccc(NCC2CC3(CCN(CCC(C)(C)C)CC3)C2)nn1 [Compound 39, N-[[7-(3,3-Dimethylbutyl)-7-azaspiro[3.5]nonan-2-yl]methyl]-6-(1,3-dimethylpyrazol-4-yl)pyridazin-3-amine] | 4.55 | 0.22
Fc1ccc(Cl)c(-c2ccc(OC3CC4(CCN(CC5CC6C=CC5C6)CC4)C3)nn2)c1 (centres unmarked) [Compound 16, 7-(5-bicyclo[2.2.1]hept-2-enylmethyl)-2-[6-(2-chloro-5-fluoro-phenyl)pyridazin-3-yl]oxy-7-azaspiro[3.5]nonane] | 3.07 | 0.18
Fc1ccc(Cl)c(-c2ccc(NCC3CC4(CCN(CC5CCOCC5)CC4)C3)nn2)c1 [Compound 44, 6-(2-chloro-5-fluoro-phenyl)-N-[[7-(tetrahydropyran-4-ylmethyl)-7-azaspiro[3.5]nonan-2-yl]methyl]pyridazin-3-amine] | 4.66 | 0.73
Cc1nn(C)cc1-c1ccc(NCC2CC3(CCN(Cc4ccccc4F)CC3)C2)nn1 [Compound 54, 6-(1,3-dimethylpyrazol-4-yl)-N-[[7-[(2-fluorophenyl)methyl]-7-azaspiro[3.5]nonan-2-yl]methyl]pyridazin-3-amine] | 6.27 | 1.12
Fc1ccc(Cl)c(-c2ccc(OC3CC4(CCN(Cc5ccccc5)CC4)C3)nn2)c1 [Compound 22, 7-benzyl-2-[6-(2-chloro-5-fluoro-phenyl)pyridazin-3-yl]oxy-7-azaspiro[3.5]nonane] | 3.34 | 1.27
Cc1cccnc1CN1CCC2(CC1)CC(Nc1ccc(-c3c(C)cnn3C)nn1)C2 [Compound 12, N-[6-(2,4-dimethylpyrazol-3-yl)pyridazin-3-yl]-7-[(3-methyl-2-pyridyl)methyl]-7-azaspiro[3.5]nonan-2-amine] | 6.85 | 1.12
Cc1nn(C)cc1-c1ccc(OC2CC3(CCN(CC(C)C(C)(C)C)CC3)C2)nn1 (centres unmarked) [Compound 25, 2-[6-(1,3-dimethylpyrazol-4-yl)pyridazin-3-yl]oxy-7-(2,3,3-triniethylbutyl)-7-azaspiro[3.5]nonane] | 3.1 | 0.21
Fc1ccc(Cl)c(-c2ccc(NCC3CC4(CCN(Cc5ccc6c(c5)OCO6)CC4)C3)nn2)c1 [Compound 49, N-[[7-(1,3-benzodioxol-5-ylmethyl)-7-azaspiro[3.5]nonan-2-yl]methyl]-6-(2-chloro-5-fluoro-phenyl)pyridazin-3-amine] | 4.6 | 2.02
Fc1ccc(Cl)c(-c2ccc(OC3CC4(CCN(CC5CCOCC5)CC4)C3)nn2)c1 [Compound 19, 2-[6-(2-chloro-5-fluoro-phenyl)pyridazin-3-yl]oxy-7-(tetrahydropyran-4-ylmethyl)-7-azaspiro[3.5]nonane] | 3.47 | 1.14
